Assay results as given in PubChem BioAssay (NCI).
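How tested: cells in 96-well plates exposed to compound for 48 hours at five concentrations. At the TGI there is no net growth.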

Columns and labels:
Experiment in all cases: DTP human tumour cell line panel, 48 h
NCI-H522 lung = tested on: NCI-H522 lung
SK-MEL-2 melanoma = tested on: SK-MEL-2 melanoma
A549 NSCLC = tested on: A549 NSCLC
HT29 colon = tested on: HT29 colon
ACHN renal = tested on: ACHN renal
HOP-62 NSCLC = tested on: HOP-62 NSCLC
HL-60(TB) leukemia = tested on: HL-60(TB) leukemia
EKVX NSCLC = tested on: EKVX NSCLC
SNB-19 CNS = tested on: SNB-19 CNS

SMILES	TGI (NCI-H522 lung) [µM]	TGI (SK-MEL-2 melanoma) [µM]	TGI (A549 NSCLC) [µM]	TGI (HT29 colon) [µM]	TGI (ACHN renal) [µM]	TGI (HOP-62 NSCLC) [µM]	TGI (HL-60(TB) leukemia) [µM]	TGI (EKVX NSCLC) [µM]	TGI (SNB-19 CNS) [µM]
O=c1c2ccccc2nc(/C=C(\O)c2ccncc2)n1-c1ccc(Cl)cc1	> 100	> 100	> 100	> 100	> 100	> 100	> 100	> 100	> 100
COC(=O)c1ccccc1N1C(=O)Cc2ccccc2C1=O		> 100	> 100	> 100	> 100			> 100	> 100
CCOC(=O)Cc1csc(Nc2ccc(OCC)cc2)n1	> 100	> 100	> 100	> 100	> 100	> 100	> 100	> 100	> 100
CCCCC(C(=O)CCC(=O)Nc1ccc(Cl)c(Cl)c1)C(=O)C(C)C (stereo unspecified)	> 100	> 100	> 100	> 100	> 100	> 100	> 100	> 100	> 100
C(=N\Nc1ccccc1)/c1nc2ccccc2nc1/C=N/Nc1ccccc1	35.9	39.3	28.8	23.5	30.6	34.6	> 100	> 78.6	35.4
Nc1nc(Cl)cc(NCC(O)CO)n1 (stereo unspecified)		> 100	> 100	> 100		> 100	> 100	> 100	> 100
COc1cc(O)c2c(c1)O[C@@H]1OCC[C@H]21		> 100	> 100	> 100	> 100	> 100	> 100	> 100	> 100
CCC(O)C1Cc2c(C)cc3c(c2O1)C(=O)c1ccccc1C3=O (stereo unspecified)	51.6	> 100	> 100	> 100	> 100	> 100	51.7	> 100	> 100
O=C(c1ccccc1)C(c1ccccc1)C1(O)C(=O)Nc2ccc([N+](=O)[O-])cc21 (stereo unspecified)	> 100	> 100	> 100		> 100	> 100	> 100	> 100	> 100
Nc1nc(N)c(-c2ccccc2)c(C(=O)Nc2ccccc2)n1	> 100	> 100	> 100	> 100	> 100			> 100	> 100
